Test results published in patent publication US20120329860A1, “Uses of Beta-Nicotinamide Adenine Dinucleotide” (MEDICAL COLLEGE OF GEORGIA INSTITUTE, INC, priority 2010, published 2012).

Tests used:
PKA = PKA inhibitor test in ECIS/TER assay (HPAEC); format: cell-based, human; conditions: H-89 pretreatment 30 min, then 50 μM β-NAD
Excerpt: (§1) The barrier properties of endothelial cells monolayers were characterized using a highly sensitive electrical cell-substrate impedance sensing (ECIS) instrument to measure transendothelial electrical resistance (TER) as described (Birukova et al., 2004a. Microvasc Res 67(1):64-77; Kolosova et al., 2005, Circ Res 97(2):115-124). The TER data was normalized to the initial voltage.
To elucidate the signaling pathways involved in β-NAD-induced HPAEC TER increase, the cAMP-activated protein kinase A (PKA) and the nucleotide exchange protein directly activated by cAMP (EPAC) pathways were examined. Since activation of P2Y11 receptors may lead to the Gas-mediated pathway including direct stimulation of adenylate cyclase, elevation of cAMP levels and cAMP-dependent activation of PKA, a simple inhibitory test was performed to confirm an activation of PKA and its participation in β-NAD-induced HPAEC barrier enhancement. For this test, H-89, an inhibitor of PKA activity, was used in ECIS experiments. HPAEC were pre-treated with H-89 for 30 min and then challenged with β-NAD and the effect of β-NAD-mediated barrier enhancement was determined using TER measurement.

P2Y1 receptor = biological target: T1, P2Y1 receptor (Homo sapiens, UniProt P47900); assay: P2Y1 receptor antagonist study (TER, HPAEC); format: cell-based; set-up: dose or concentration left out as unconfirmed; conditions: MRS2279 pretreatment 30 min, then b-NAD
T1 construct: To deplete the mRNA content of endogenous P2Y1, P2Y11 or EPAC1; endogenous in cells; host or cells: HPAEC (human pulmonary artery endothelial cells)
Experimental: as §1
(§2) HPAEC were pretreated with receptor-specific antagonists, MRS2279 or NF157, for 30 min, and then challenged with […] b-NAD. TER was registered throughout to examine the barrier enhancement induced by b-NAD in the presence or absence of the antagonists.

P2Y11 receptor = biological target: T2, P2Y11 receptor (Homo sapiens, UniProt Q96G91); assay: P2Y11 receptor antagonist study (TER, HPAEC); format: cell-based; conditions: 1 mM NF157 pretreatment 30 min, then b-NAD
T2 construct: To deplete the mRNA content of endogenous P2Y1, P2Y11 or EPAC1; endogenous in cells; host or cells: HPAEC (human pulmonary artery endothelial cells)
T2 sequence (Q96G91 1-374): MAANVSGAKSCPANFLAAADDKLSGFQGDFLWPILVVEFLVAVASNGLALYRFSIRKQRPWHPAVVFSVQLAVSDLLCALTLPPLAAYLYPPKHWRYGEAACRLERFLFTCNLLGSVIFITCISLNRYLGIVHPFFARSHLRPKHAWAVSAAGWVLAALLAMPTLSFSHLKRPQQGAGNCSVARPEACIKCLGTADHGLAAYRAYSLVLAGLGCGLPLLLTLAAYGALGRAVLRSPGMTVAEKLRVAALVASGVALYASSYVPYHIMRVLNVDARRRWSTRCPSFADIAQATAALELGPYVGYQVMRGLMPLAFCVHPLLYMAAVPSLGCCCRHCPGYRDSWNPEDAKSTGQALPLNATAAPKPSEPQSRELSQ
Experimental: as §1, §2

HPAEC monolayers = assay: Transendothelial electrical resistance (TER) by ECIS in HPAEC monolayers; format: cell-based, human; conditions: for TER of HPAEC monolayers after cytoskeleton-disrupting agent: agent alone, pretreatment 30 min
Experimental: Human pulmonary artery endothial cells (HPAEC) and EBM-2 complete medium were purchased from Lonza (Allendale, N.J.). HPAEC were cultured according to the manufacturer's protocol and utilized at early (3-6) passages.
as §1

LPS-induced ALI in mice = assay: Evans Blue Dye-albumin (EBD) lung permeability; format: in vivo; conditions: LPS alone treated mice; vehicle 4.57
Experimental: Mice were anesthetized with ketamine (150 mg/kg) and acetylpromazine (15 mg/kg) intraperitoneally (i.p.) before the exposure of the trachea via neck incision and intubation with 20-guage catheter and the right internal jugular vein was exposed via right chest incision for PBS or b-NAD installation. The mice were randomly divided into groups. LPS or sterile saline was instilled intratracheally (i.t.) via a 20-gauge catheter. Simultaneously, mice received either b-NAD (5.4 mg/kg, equivalent to final calculated plasma concentration […] or PBS in the control group intravenously (i.v.) through the internal jugular vein (IJ). The animals were allowed to recover for 18 hr. EBD was given through the IJ 2 hr prior to termination of the experiment. At termination, bronchoalveolar lavage (BAL) was collected. BAL was 1ml of 10% HBSS through the endotracheal catheter immediately on sacrifice with aspiration. BAL was immediately centrifuged and processed. After the BAL, ethylenediaminetetraacetic acid (EDTA) was used to flush the lungs of blood via the right heart ventricle and the lungs were then harvested. BAL and lungs were collected and stored at −70° C. for evaluation of lung injury.
Measurement of EBD concentration in the lungs was performed by injection of EBD (20 mg/kg) into the right internal jugular vein 2 hr before the termination of the experiment to assess the vascular leak. Lungs free of blood were weighed and snap frozen in liquid nitrogen. The left lung was weighed and homogenized, then incubated with two volumes of formamide (18 hr, 60° C.) and centrifuged (5000 g, 30 min, 20° C.). The extravasated EBD concentration (mg/g, lung) in the lung homogenate was calculated against a standard curve. In a separate experiment the EBD was injected into the right internal jugular vein as described above at 2 hrs prior to termination of the experiment and the left lung gross anatomy view was photographed with a Leica NCL150 Camera.

[1] = test system: LPS-induced mortality in mice; assay: LPS-induced mortality / survival; format: in vivo; conditions: LPS alone, within four days
Experimental: Mice were injected with β-NAD (100 mg/kg, i.p) or vehicle (saline, i.p) 10 min after LPS (20 mg/kg, i.p) challenge. As a treatment strategy, β-NAD was given twice a day (i.p) for 4 days. […]

T1 sequence (P47900 whole entry): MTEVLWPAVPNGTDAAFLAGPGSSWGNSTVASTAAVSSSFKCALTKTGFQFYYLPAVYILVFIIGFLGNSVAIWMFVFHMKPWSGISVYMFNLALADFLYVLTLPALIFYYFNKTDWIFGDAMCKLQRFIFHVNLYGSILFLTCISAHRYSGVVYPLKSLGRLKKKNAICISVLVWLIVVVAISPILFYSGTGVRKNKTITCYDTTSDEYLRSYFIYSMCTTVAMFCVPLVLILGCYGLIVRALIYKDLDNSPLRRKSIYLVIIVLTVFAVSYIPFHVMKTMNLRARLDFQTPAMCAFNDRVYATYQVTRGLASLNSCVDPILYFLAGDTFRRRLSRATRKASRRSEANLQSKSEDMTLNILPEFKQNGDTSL

O=S(=O)(NCCNC/C=C/c1ccc(Br)cc1)c1cccc2cnccc12 [H-89]
effect of PKA inhibitor on β-NAD-induced TER increase (PKA): attenuated the β-NAD-induced HPAEC TER increase

CNc1nc(Cl)nc2c1ncn2[C@H]1C[C@@H](OP(=O)(O)O)[C@]2(COP(=O)(O)O)C[C@H]12 [MRS2279]
effect of P2Y1 antagonist on β-NAD-induced TER increase (P2Y1 receptor): attenuated the β-NAD-induced TER increase

O=C(Nc1cccc(C(=O)Nc2cc(C(=O)Nc3ccc(S(=O)(=O)O)c4cc(S(=O)(=O)O)cc(S(=O)(=O)O)c34)ccc2F)c1)Nc1cccc(C(=O)Nc2cc(C(=O)Nc3ccc(S(=O)(=O)O)c4cc(S(=O)(=O)O)cc(S(=O)(=O)O)c34)ccc2F)c1 [NF157]
effect of P2Y11 antagonist on β-NAD-induced TER increase (P2Y11 receptor): attenuated the β-NAD-induced TER increase more significantly

C=C1[C@@H](C)[C@H]2[C@H](Cc3ccccc3)NC(=O)[C@]23OC(=O)/C=C/[C@H](O)CCC[C@@H](C)C/C=C/[C@H]3[C@@H]1O [cytochalasin B, reference compound]
TER of HPAEC monolayers after cytoskeleton-disrupting agent (HPAEC monolayers): produced a prompt attenuation in TER

COC(=O)Nc1nc2ccc(C(=O)c3cccs3)cc2[nH]1 [nocodazole, reference compound]
TER of HPAEC monolayers after cytoskeleton-disrupting agent (HPAEC monolayers): compromises endothelial cell barrier integrity

lipopolysaccharide [LPS, reference compound]
decrease in TER from the baseline (HPAEC monolayers; LPS (100 ng/ml) alone): ~60% | EBD-albumin in lung (average) (LPS-induced ALI in mice): 16.81 µg/g | mortality [1]: 100%

pneumolysin [PLY, reference compound]
decrease in TER from the baseline (HPAEC monolayers; PLY alone (125 ng/ml)): ~80%
